This assay concerns Adult human keratinocytes. In words: Telomerase expression (TRAP assay kit) in treated keratinocytes. The class given is cell-based. To be noted: keratinocytes exposed to both agents in sequence: 10-25 μM 5-aza-2′-deoxycytidine for 5 days and 100-250 ng/ml trichostatin for 1 day; versus cells not exposed. On the procedure:
Adult human keratinocytes are obtained form Clonetics (San Diego, Calif.) and grown in Keratinocyte Growth Media in 5-10% CO2 at 37 degree C. according to the instructions “Keratinocyte System Instructions” BioWhittaker Catalogue number AA-1000. When the adult keratinocytes are about 40-80% confluent, 10-25 μM 5-aza-2′-deoxycytidine (Sigma, St Louis, Mo.) is added to the culture. After 4 days of incubation with 5-aza-2′-deoxycytidine, 100-250 ng/ml trichostatin (Sigma, St Louis, Mo.) is added to the culture. The culture is incubated for an additional day and sampled for telomerase activity.
Keratinocytes exposed to 10-25 μM 5-aza-2′-deoxycytidine for 5 days and 100-250 ng/ml trichostatin for 1 day and cells not exposed to these agents are assayed for the expression of telomerase (using a commercially available TRAP assay kit). These cells are assayed along side positive controls (HeLa and NH-12 cells) and negative controls (human foreskin fibroblasts and heated HN-12 cell extracts). Telomerase activity is measured by phosphoimaging telomeric products resolved on 12.5% […]. Telometric ladders indicative of telomerase activity, consistent with the presence of stem cells is observed in the positive controls and in the keratinocytes exposed to 10-25 μM 5-aza-2′-deoxycytidine for 5 days and 100-250 ng/ml trichostatin for 1 day.

`Nc1ncn([C@H]2C[C@H](O)[C@@H](CO)O2)c(=O)n1` [5-aza-2′-deoxycytidine]: the “Telomerase activity (telomeric ladders)” value is “increased telomerase activity”. Then `CC(/C=C/C(=O)NO)=C\[C@@H](C)C(=O)c1ccc(N(C)C)cc1` [trichostatin], with “increased telomerase activity”.

The record behind these values is patent publication US20050118228A1, “Compositions and methods for augmentation or repair of intervertebral discs” (priority 2003, published 2005).
